The subject of this experiment is Ehrlich. Put plainly: Cytotoxicity against Mus musculus (mouse) EAC cells assessed as decrease in cell viability at 50 ug/ml by trypan blue exclusion assay. In kind it is functional, cell-based.

Activity calls are given as the source filed them. The rule behind the calls is not given here.

`CCOC(=O)CCCSc1nc(C)cc(C)c1C#N`: the outcome was Active.

For `CCOC(=O)C1CCSc2nc(C)cc(C)c2C1=O` (stereo not drawn), the outcome was Active.

With `Cc1cc2n(c(=S)c1C#N)CCCC(=O)C2`, the result was Active.

For the origin of these results see ChEMBL document CHEMBL3045598, “Utilization of nicotinonitrile-2-thiol in the synthesis of new thiepino[2,3-b]pyridine derivative as an in vitro novel antitumor potent” (Med Chem Res, 2013).
